Reference: US4305942A, “Xanthine oxidase inhibitor and therapeutic treatment using same” (Siegfried Aktiengesellschaft, priority 1979, dated 1981)
Read-outs that look alike come from different tables or passages of the source.

Experiments:
[1] = cited from earlier work
[2] = target: T1, xanthine oxidase (Bos taurus, UniProt P80457); test: xanthine oxidase inhibition in vitro (UV-spectrophotometric uric acid formation at 290 nm from hypoxanthine); format: biochemical; details: for Inhibition (%) of xanthine oxidase: 6 minutes, ambient temperature
T1 construct: purchased CALBIOCHEM 682151
Procedure: In the human in vivo metabolism the xanthine oxidase decomposes xanthine and hypoxanthine, respectively, to yield uric acid. This decomposition reaction can be perfectly simulated in vitro. For this purpose buffered solutions of (a) hypoxanthine, (b) xanthine oxidase and (c) the test substance are prepared. Solution (a) and (c) are mixed and filled into the cuvette of a UV-spectrophotometer. Solution (b) is then added into the cuvette. The UV-spectrophotometer is adjusted to 290 nm, i.e. to one of the main absorption lines of uric acid. Registration of the intensity of the 290 nm line is commenced immediately upon adding solution (b), i.e., upon adding the xanthine oxidase solution. The measurement is continued for exactly 6 minutes. For each test substance a certain number of measurements is carried out at varying concentrations of the test substance. The registered intensity values obtained after a certain time, here after 6 minutes, are compared to a standard registration containing as a solution (c) a blank buffer solution.
For the present measurements the UV-spectrophotometer used is a ZEISS PM Q II.
Solution (a) is 1 ml hypoxanthine puriss (FLUKA No. 56700) dissolved in a concentration of 1.5×10^-4 moles/liter in a 0.067 molar phosphate buffer solution having a pH of 7.4.
Solution (b) is 1 ml xanthine oxidase (CALBIOCHEM No. 682151) having a specific activity of 2.65 I.U./ml at 30° C., and is diluted in a ratio of 1:200 in the same phosphate buffer as used in solution (a).
Solution (c) is 1 ml of blank phosphate buffer for controls (standards) and a solution of the test substance dissolved in said phosphate buffer in varying concentrations, respectively.
The spectrophotometric measurements are carried out at ambient temperature.

T1 sequence (P80457 whole entry): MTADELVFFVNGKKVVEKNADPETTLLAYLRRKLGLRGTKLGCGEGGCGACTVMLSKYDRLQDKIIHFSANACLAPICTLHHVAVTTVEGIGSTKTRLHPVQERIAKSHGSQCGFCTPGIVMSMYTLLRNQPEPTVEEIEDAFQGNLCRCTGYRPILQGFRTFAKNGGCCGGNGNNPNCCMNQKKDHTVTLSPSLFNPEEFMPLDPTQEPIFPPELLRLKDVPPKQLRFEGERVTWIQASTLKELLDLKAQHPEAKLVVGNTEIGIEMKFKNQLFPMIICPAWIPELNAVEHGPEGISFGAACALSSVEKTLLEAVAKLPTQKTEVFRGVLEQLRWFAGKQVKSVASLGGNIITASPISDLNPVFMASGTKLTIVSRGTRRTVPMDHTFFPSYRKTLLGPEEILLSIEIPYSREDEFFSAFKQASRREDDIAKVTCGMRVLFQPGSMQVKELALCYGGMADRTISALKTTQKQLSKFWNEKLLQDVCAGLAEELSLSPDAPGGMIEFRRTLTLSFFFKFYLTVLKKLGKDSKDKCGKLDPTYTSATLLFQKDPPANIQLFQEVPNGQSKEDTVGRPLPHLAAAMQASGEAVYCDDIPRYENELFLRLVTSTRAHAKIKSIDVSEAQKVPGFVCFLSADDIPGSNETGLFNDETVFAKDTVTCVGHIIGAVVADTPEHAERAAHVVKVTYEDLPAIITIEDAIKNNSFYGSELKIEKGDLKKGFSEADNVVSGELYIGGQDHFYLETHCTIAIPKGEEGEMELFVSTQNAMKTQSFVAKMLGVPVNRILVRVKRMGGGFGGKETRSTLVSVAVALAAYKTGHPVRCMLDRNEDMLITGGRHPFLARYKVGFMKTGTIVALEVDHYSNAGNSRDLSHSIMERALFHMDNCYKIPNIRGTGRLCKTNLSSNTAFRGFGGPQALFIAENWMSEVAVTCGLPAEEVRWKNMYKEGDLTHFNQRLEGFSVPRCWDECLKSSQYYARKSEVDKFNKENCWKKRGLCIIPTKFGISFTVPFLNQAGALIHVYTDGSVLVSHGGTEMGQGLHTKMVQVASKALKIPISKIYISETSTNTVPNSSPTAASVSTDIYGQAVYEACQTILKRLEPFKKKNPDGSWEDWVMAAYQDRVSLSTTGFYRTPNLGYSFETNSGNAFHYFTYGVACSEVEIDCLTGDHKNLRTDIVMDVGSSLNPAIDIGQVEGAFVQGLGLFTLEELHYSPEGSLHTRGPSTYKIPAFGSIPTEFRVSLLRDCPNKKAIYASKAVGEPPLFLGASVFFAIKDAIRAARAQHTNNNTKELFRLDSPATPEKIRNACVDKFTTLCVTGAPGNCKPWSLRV

Compound	plasma level ([1]; 300 mg/d allopurinol orally in one single portion) [ng/mL]	Inhibition (%) of xanthine oxidase ([2]; 1.25 × 10^-5 moles/liter azapropazone, pH 7.4) [%]	Inhibition (%) of xanthine oxidase ([2]; 2.50 × 10^-5 moles/liter azapropazone, pH 7.4) [%]	Inhibition (%) of xanthine oxidase ([2]; 5.00 × 10^-5 moles/liter azapropazone, pH 7.4) [%]	IC50 ([2]; 50% inhibition concentration (xanthine oxidase), IC50 expressed in μg/ml) [µM]	IC50 ([2]; 50% inhibitive concentration IC50 (xanthine oxidase), interpolated from inhibition values, hypoxanthine substrate, pH 7.4) [µM]	plasma level ([1]; 1000 mg/d azapropazone orally in one single portion) [ng/mL]
Oc1ncnc2[nH]ncc12 [allopurinol]	2000	–	–	–	–	–	–
CCCC1C(=O)N2C(N(C)C)=Nc3ccc(C)cc3N2C1=O (stereo not shown) [azapropazone, 3-dimethylamino-7-methyl-1,2-(n-propylmalonyl)-1,2-dihydro-1,2,4-benzotriazine dihydrate]	–	20	35	55	44.9	40	80800
